Entries after “also recorded” stand apart in the source; their conditions may differ.
Tests used:
pathological tau species = experiment: Immunoblot of tau species in P301S mouse brains; format: in vivo; details: P301S mice, 2 mg/kg i.p. once daily for 6 weeks from 17 weeks of age, vs saline
Description: (§1) For the efficacy trial in the late disease stage (Xu et al. 2014), P301S mice and wild type littermates received once daily i.p. injections of 2 mg/kg CCT020312 or saline from 17 to 22 weeks of age (n=12 for CCT020312 treated P301S mice, n=9 for other groups); they were analyzed with the Rotarod test in the 23rd week of age.
Twelve hours after the last injection, animals were anesthetized by i.p. injections of pentobarbital at (100 mg/kg) and transcardially perfused with 0.1 M phosphate buffer for 2 min, then fixed for 10 min with 4% paraformaldehyde. Post-fixation of the brain was done in 4% paraformaldehyde at 4° C. for 48 h. Their brains were prepared for histological analysis, as described (Xu et al. 2014). For the immunoblot analysis in P301S mice and wild type mice were sacrificed by cervical dislocation, their brains were frozen on dry ice and stored at −80° C. for Western blot analysis.
Frontal cortex tissue was dissected from the fresh-frozen sample on dry ice and suspended in 750 μl of T-PER Tissue Protein Extraction Reagent (Thermo Fisher Scientific) and 1× cOmplete Protease Inhibitor Cocktail Tablets (Hoffmann-La Roche) and 1× PhosSTOP Phosphatase Inhibitor Cocktail Tablets (Hoffmann-La Roche). The tissue piece was initially ground with a pestle inside a microcentrifuge tube on ice and then homogenized by sonification with Branson Sonifier 450 Analog (Branson, now Thermo Fisher Scientific) with 10×500 ms bursts at intensity level 3 on ice. […] Protein concentrations were determined using the BCA kit (Thermo Fisher Scientific) by heating the samples at 60° C. for 30 minutes and measuring the absorption on the NanoDrop 2000c spectrophotometer (Thermo Fisher Scientific).
20 μg of protein (200 μg for pPERK blots) were adjusted to equal concentrations between samples by dilution with M-PER and subsequently heated at 95° C. for 5 minutes with Roti®-Load 1 (Carl Roth). […] Chemiluminescence was detected with the Gel Doc™ XR System (BioRad) and analyzed with the Image Lab™ software (BioRad), followed by graphical and statistical analysis with Prism 6 (GraphPad Software).

[1] = test system: P301S tau transgenic mice; experiment: Rotarod test; format: in vivo, mouse; details: 2 mg/kg i.p. once daily for 6 weeks, 23 weeks of age, vs saline
Description: All animal work was conducted either on CR57BL/6 mice, obtained from Charles River Laboratories, Wilmington, Mass., USA, or on homozygous transgenic mice overexpressing human tau with the P301S mutation on a C57BL/6 background, originally developed by Michel Goedert (Xu et al. 2014), obtained by own breeding. Animals were kept at 23±1° C. under standard 12 h light-dark cycle with free access to food and water. They were handled according to the EU Council Directive 2010/63/EU, the Guide for the Care and Use of Laboratory Animals (National Research Council 2011) and the guidelines of the local institutional committee. The experiments were authorized by the local authority “Regierung von Oberbayern” under application number 55.2-1-54-2532-165-13.
5 mg of the PA compound CCT020312 (EMD Millipore, Billerica, Mass., USA) was first dissolved in 100 μl sterile DMSO (AppliChem, Darmstadt, Germany) and then diluted in sterile saline (B. Braun Medical, Melsungen, Germany) to achieve a stock solution of […].
as §1, with “age. […]” for “age.”

Structure (SMILES): CCN(CC)CCC(=O)N1N=C(c2c(-c3ccccc3)c3cc(Br)ccc3[nH]c2=O)CC1c1ccc(Br)cc1 (stereo not shown) [CCT020312, 6-bromo-3-[5-(4-bromo-phenyl)-1-(3-diethylamino-propionyl)-4,5-dihydro-1H-pyrazol-3-yl]-4-phenyl-1H-quinolin-2-one]
- AT180-immunoreactivity (paired helical filament tau), immunoblot (pathological tau species): decreased
- CP13-immunoreactivity (S202-phosphorylated tau), immunoblot (pathological tau species): decreased
- MC1-immunoreactivity (conformationally changed tau), immunoblot (pathological tau species): decreased
- Rotarod performance (latency to fall) [1]: significantly improved; also recorded: increased performance

Source: US10369123B2, “Perk activator for the treatment of neurodegenerative diseases” (DEUTSCHES ZENTRUM FÜR NEURODEGENERATIVE ERKRANKUNGEN E.V. …, priority 2014, dated 2019)
